Measured values taken from ChEMBL document CHEMBL5226366, “Synthesis and Structure Revision of Naturally Occurring Homoisoflavane (+)-Dracaeconolide B” (2023).

Key:
HUVEC = experiment: Antiangiogenic activity against HUVEC cells assessed as inhibition of cell growth incubated for 44 hrs by Alamar Blue fluorescence assay; type: functional; settings: Homo sapiens
[1] = Antiangiogenic activity against human HREC cells assessed as inhibition of cell growth incubated for 44 hrs by Alamar Blue fluorescence assay; type: functional

SMILES	GI50 (HUVEC) [µM]	GI50 [1] [µM]
COc1cc(O)c(OC)c2c1C[C@@H](Cc1ccc(O)cc1)CO2	> 100	> 100
COc1cc2c(c(O)c1OC)CC(Cc1ccc(O)cc1)CO2 (stereo unspecified)	90.1	3.47
COc1cc(OC)c2c(c1O)OCC(Cc1ccc(O)cc1)C2 (stereo unspecified)	> 100	28.3
COc1c(O)cc2c(c1OC)C[C@H](Cc1ccc(O)cc1)CO2	> 100	> 100
COc1cc(O)c2c(c1OC)OCC(Cc1ccc(O)cc1)C2 (stereo unspecified)	> 100	> 100
COc1cc2c(c(OC)c1O)CC(Cc1ccc(O)cc1)CO2 (stereo unspecified)	> 100	0.96
COc1c(O)cc2c(c1OC)CC(Cc1ccc(O)cc1)CO2 (stereo unspecified)	> 100	> 100
COc1c(O)cc2c(c1OC)C[C@@H](Cc1ccc(O)cc1)CO2	> 100	> 100
